Among the data in patent publication US8859559B2, “Substituted pyrazines and their use in the treatment of disease” (Boehringer Ingelheim International GmbH, priority 2011, dated 2014) are IC50 values, retold here.

The structures appear in SMILES notation.

This assay concerns the target T1, ENaC (Epithelial Sodium Channel) (Mus musculus, UniProt Q61180+Q9WU38+Q9WU39).
T1 construct: Mouse kidney M-1 cells were cultivated in DMEM; endogenous in cells; host or cells: Mouse kidney M-1 cells (dexamethasone-treated, on transwell filters)
T1 sequence (Q61180 1-699): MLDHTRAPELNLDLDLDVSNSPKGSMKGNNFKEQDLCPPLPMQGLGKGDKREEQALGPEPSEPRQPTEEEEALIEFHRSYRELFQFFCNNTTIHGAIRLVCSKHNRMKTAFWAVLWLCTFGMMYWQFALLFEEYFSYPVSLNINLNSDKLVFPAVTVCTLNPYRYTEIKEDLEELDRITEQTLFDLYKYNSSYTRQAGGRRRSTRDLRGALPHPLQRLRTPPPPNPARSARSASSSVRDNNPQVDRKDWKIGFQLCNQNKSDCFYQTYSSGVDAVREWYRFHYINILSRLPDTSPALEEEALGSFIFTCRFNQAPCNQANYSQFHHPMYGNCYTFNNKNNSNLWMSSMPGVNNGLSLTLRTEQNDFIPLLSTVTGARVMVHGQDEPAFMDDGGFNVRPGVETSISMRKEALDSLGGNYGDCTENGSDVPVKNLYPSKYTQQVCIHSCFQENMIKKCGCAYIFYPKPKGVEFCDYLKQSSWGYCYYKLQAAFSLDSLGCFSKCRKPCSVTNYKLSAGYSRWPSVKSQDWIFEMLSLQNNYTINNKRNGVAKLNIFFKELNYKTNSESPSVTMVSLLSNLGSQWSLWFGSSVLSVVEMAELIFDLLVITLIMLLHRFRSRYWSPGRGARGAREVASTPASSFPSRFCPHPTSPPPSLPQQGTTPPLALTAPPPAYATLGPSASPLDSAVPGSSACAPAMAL
T1 sequence (Q9WU38 1-638): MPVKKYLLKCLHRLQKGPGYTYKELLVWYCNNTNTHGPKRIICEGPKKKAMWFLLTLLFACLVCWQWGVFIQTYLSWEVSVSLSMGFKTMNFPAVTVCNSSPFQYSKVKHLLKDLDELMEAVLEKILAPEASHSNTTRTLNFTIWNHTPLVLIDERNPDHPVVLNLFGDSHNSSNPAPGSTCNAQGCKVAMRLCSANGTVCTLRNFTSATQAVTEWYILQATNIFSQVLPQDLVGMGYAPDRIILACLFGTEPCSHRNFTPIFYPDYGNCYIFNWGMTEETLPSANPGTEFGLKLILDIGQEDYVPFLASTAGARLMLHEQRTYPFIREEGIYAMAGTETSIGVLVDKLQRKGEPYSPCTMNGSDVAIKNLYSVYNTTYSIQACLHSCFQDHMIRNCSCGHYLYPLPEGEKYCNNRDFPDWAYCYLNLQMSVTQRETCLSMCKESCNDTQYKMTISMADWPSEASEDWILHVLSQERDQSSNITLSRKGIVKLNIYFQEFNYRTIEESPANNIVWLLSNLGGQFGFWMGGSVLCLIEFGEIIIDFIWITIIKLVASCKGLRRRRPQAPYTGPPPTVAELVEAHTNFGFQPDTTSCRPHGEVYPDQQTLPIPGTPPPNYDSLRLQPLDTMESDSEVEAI
T1 sequence (Q9WU39 1-655): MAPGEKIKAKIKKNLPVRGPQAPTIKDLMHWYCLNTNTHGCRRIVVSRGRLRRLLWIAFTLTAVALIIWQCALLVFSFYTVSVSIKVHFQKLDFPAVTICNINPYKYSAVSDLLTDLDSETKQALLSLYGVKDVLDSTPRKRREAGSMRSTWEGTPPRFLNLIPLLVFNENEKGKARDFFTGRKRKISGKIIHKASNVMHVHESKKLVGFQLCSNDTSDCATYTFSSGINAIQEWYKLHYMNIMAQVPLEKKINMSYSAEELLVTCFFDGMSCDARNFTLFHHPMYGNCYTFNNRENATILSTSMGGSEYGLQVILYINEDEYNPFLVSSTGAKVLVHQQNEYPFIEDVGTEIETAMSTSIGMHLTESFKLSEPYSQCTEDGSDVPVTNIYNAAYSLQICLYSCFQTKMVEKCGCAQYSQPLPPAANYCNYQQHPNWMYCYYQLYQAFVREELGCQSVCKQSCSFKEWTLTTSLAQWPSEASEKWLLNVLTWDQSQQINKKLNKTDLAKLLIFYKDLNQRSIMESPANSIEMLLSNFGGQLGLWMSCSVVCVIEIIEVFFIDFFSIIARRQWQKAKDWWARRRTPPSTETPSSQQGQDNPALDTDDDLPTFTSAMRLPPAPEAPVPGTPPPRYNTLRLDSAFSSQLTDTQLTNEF
In words: Ussing chamber: inhibition of amiloride sensitive short circuit current (I_sc) in M-1 cells. It is filed as cell-based. As to conditions: mouse kidney M-1 cells. The method, then:
Mouse kidney M-1 cells were cultivated in DMEM containing 5% FCS and 5 μM dexamethasone for 10 to 12 days on polyester transwell filters. Filters were inserted into a teflon-coated well-plate which fit into the in-house ussing chamber system. Prior to measurement the medium of M-1 cells was replaced with Caco-2 transport buffer (Invitrogen, Germany). During measurements, the Ussing chamber temperature was kept at 37° C. Short circuit currents (I_sc) were measured in the voltage-clamp mode using an in-house built amplifier (Boehringer Ingelheim, Biberach) with the software package Lab View for data acquisition and analysis. The transepithelial electrical resistance (TEER) was determined by the application of voltage steps of ±5 mV every 5 sec. Compounds were administered at a final concentration of 3 μM or at increasing concentrations (1-3-10 μM) to the apical solution. At the end of each experiment the amiloride sensitive I_SC was measured by adding 3 μM amiloride to the apical compartment. Results are expressed as inhibition in percent of the amiloride effect or as IC50. With the example compounds given above, the following IC50 values were determined in the Ussing Chamber assay: […]
The molecule `N/C(=N\C(=O)c1nc(Cl)c(N)nc1N)NC1CCN(Cc2ccccc2)CC1` [Example 1.25] yielded an IC50 of 6 nM.
Molecule `C#CCCCCOC(=O)c1ccc(CN2CCC(NC(N)=NC(=O)c3nc(Cl)c(N)nc3N)CC2)cc1` [Example 1.9] yielded an IC50 of 8 nM.
Molecule `COC(=O)COc1ccc(CN2CCC(NC(N)=NC(=O)c3nc(Cl)c(N)nc3N)CC2)cc1OCC(=O)OC` [Example 1.53] showed an IC50 of 7 nM.
On to `NC(=NC(=O)c1nc(Cl)c(N)nc1N)NC1CCN(Cc2ccc(CCn3cc(COCC(CO)(CO)CO)nn3)cc2)CC1` [Example 3.7], for which the IC50 is 22 nM. This IC50 is about 3.1-fold higher than that of the molecule before.
Turning to `CN(C)CCCOc1ccc(CN2CCC(NC(N)=NC(=O)c3nc(Cl)c(N)nc3N)CC2)cc1` [Example 1.34], the concentration for half-maximal inhibition (IC50) was found to be 5 nM. This IC50 lies about 4.4-fold lower than the previous one.
In turn, `NC(=NC(=O)c1nc(Cl)c(N)nc1N)NC1CCN(Cc2ccc(-c3cn(CCOCCO)nn3)cc2)CC1` [Example 5.6] displayed an IC50 of 3 nM.
`CN(C)Cc1cn(-c2ccc(CN3CCC(NC(N)=NC(=O)c4nc(Cl)c(N)nc4N)CC3)cc2)nn1` [Example 3.15] gave an IC50 of 2 nM.
For `NC(=NC(=O)c1nc(Cl)c(N)nc1N)NC1CCN(Cc2ccc(OCC(=O)O)c(OCC(=O)O)c2)CC1` [Example 8.5], the IC50 is 151 nM.
For `COc1ccc(C(=O)CN2CCC(NC(N)=NC(=O)c3nc(Cl)c(N)nc3N)CC2)cc1` [Example 1.20], half-maximal inhibition (IC50) was put at 11 nM. This IC50 lies about 14-fold lower than the previous one.
Turning to `NC(=NC(=O)c1nc(Cl)c(N)nc1N)NC1CCN(Cc2ccc(OCc3cn(CCOCCOCCOCCOCCOCCOC(c4ccccc4)(c4ccccc4)c4ccccc4)nn3)cc2)CC1` [Example 3.23], the IC50 was 13 nM.
Turning to `COC(=O)COc1ccc(CN2CC(NC(N)=NC(=O)c3nc(Cl)c(N)nc3N)C2)cc1` [Example 1.66], 261 nM corresponded to half-maximal inhibition (IC50). This IC50 is about 20-fold higher than that of the molecule before.
The value for `N/C(=N\C(=O)c1nc(Cl)c(N)nc1N)NC1CCN(Cc2ccc(CO)cc2)CC1` [Example 1.2] was 10 nM.
Next, `NC(=NC(=O)c1nc(Cl)c(N)nc1N)NC1CCN(Cc2ccc(-c3cn(CCOCCOC(c4ccccc4)(c4ccccc4)c4ccccc4)nn3)cc2)CC1` [Example 3.30]: 1 nM; `NC(=NC(=O)c1nc(Cl)c(N)nc1N)NC1CCN(Cc2ccc(CCc3cccnc3)cc2)CC1` [Example 1.57]: 5 nM.
`COC(=O)c1cccc(CN2CCC(NC(N)=NC(=O)c3nc(Cl)c(N)nc3N)CC2)c1` [Example 1.36] showed an IC50 of 3 nM.
For the molecule `NC(N)=NCc1ccc(CN2CCC(N/C(N)=N/C(=O)c3nc(Cl)c(N)nc3N)CC2)cc1` [Example 10.1], it took 3 nM to reach half-maximal inhibition (IC50).
Next, `NC(=NC(=O)c1nc(Cl)c(N)nc1N)NC1CCN(Cc2ccc(-n3cc(COCC(CO)(CO)CO)nn3)cc2)CC1` [Example 3.19]: 8 nM; `C[N+](C)(C)CCNC(=O)c1cccc(CN2CCC(NC(N)=NC(=O)c3nc(Cl)c(N)nc3N)CC2)c1` [Example 2.3]: 3 nM.
In turn, `NC(=NC(=O)c1nc(Cl)c(N)nc1N)N[C@H]1CCN(Cc2ccc(OCC(=O)O)cc2)C1` [Example 8.16] came in with an IC50 of 31 nM. This IC50 lies about 10-fold higher than the previous one.
Regarding `[N-]=[N+]=NCCOCCOCCOCCn1cc(-c2ccc(CN3CCC(NC(N)=NC(=O)c4nc(Cl)c(N)nc4N)CC3)cc2)nn1` [Example 3.32], the IC50 was determined as 25 nM.
`CN(C)CCNC(=O)c1ccc(CN2CCC(NC(N)=NC(=O)c3nc(Cl)c(N)nc3N)CC2)cc1` [Example 1.14] came in with an IC50 of 1 nM.
The molecule `NC(=NC(=O)c1nc(Cl)c(N)nc1N)NC1CCN(Cc2ccccc2C(=O)O)CC1` [Example 8.7] displayed an IC50 of 243 nM. Compared with the last molecule, the IC50 is about 240-fold higher.
`NC(=NC(=O)c1nc(Cl)c(N)nc1N)NC1CCN(Cc2ccc(-c3cn(CCOCCOCCOC(c4ccccc4)(c4ccccc4)c4ccccc4)nn3)cc2)CC1` [Example 3.28] returned an IC50 of 6 nM.
In the case of `COC(=O)C(c1ccccc1)N1CCC(NC(N)=NC(=O)c2nc(Cl)c(N)nc2N)CC1` (stereo not shown) [Example 1.37], half-maximal inhibition (IC50) was put at 17 nM.
`N#Cc1ccc(OCCN2CCC(NC(N)=NC(=O)c3nc(Cl)c(N)nc3N)CC2)cc1` [Example 1.21] showed an IC50 of 11 nM.
In the case of `NC(=NC(=O)c1nc(Cl)c(N)nc1N)NC1CCN(Cc2ccc(C(=O)NCCCn3ccnc3)cc2)CC1` [Example 1.23], 2 nM corresponded to half-maximal inhibition (IC50).
Regarding `NC(=NC(=O)c1nc(Cl)c(N)nc1N)NC1CCN(Cc2ccc(OCc3cn(CCOCCOCCOCCO)nn3)cc2)CC1` [Example 3.21], the IC50 came out at 12 nM.
For `NC(=NC(=O)c1nc(Cl)c(N)nc1N)NC1CCN(Cc2ccccc2)C1` (stereo not shown) [Example 1.26], the half-inhibitory concentration (IC50) was found to be 20 nM.
The value for `C#Cc1cccc(CN2CCC(NC(N)=NC(=O)c3nc(Cl)c(N)nc3N)CC2)c1` [Example 1.32] was 7 nM; that for `NC(=NC(=O)c1nc(Cl)c(N)nc1N)NC1CCN(Cc2ccc(-c3cn(CCOCCOCCOCCNC(=O)c4cc(OCCOCCOCCO)cc(OCCOCCOCCO)c4)nn3)cc2)CC1` [Example 5.7] was 45 nM.
As for `COc1ccc(CCN2CCC(NC(N)=NC(=O)c3nc(Cl)c(N)nc3N)CC2)cc1` [Example 1.19], the IC50 was 12 nM.
`CN(C)CCNC(=O)Cc1ccc(CN2CCC(NC(N)=NC(=O)c3nc(Cl)c(N)nc3N)CC2)cc1` [Example 2.5]: the IC50 turned out to be 6 nM.
For `COC(=O)c1ccc(CN2CCC(N/C(N)=N/C(=O)c3nc(Cl)c(N)nc3N)CC2)c(OC)c1` [Example 1.1], the half-maximal inhibitory concentration (IC50) came out at 5 nM. This IC50 and that of the molecule before are within 1.5-fold of each other.
Next, `CN(C)Cc1cn(CCc2ccc(CN3CCC(NC(N)=NC(=O)c4nc(Cl)c(N)nc4N)CC3)cc2)nn1` [Example 3.4]: 7 nM; `N/C(=N\C(=O)c1nc(Cl)c(N)nc1N)NC1CCN(Cc2ccc(C(=O)NCCCS(=O)(=O)O)cc2)CC1` [Example 2.1]: 12 nM; `CCOC(=O)c1ccc(=O)n(-c2ccc(CN3CCC(NC(N)=NC(=O)c4nc(Cl)c(N)nc4N)CC3)cc2)c1` [Example 1.16]: 17 nM.
In turn, `NC(=NC(=O)c1nc(Cl)c(N)nc1N)NC1CCN(Cc2ccc(CCn3cc(CCC(=O)N4CCOCC4)nn3)cc2)CC1` [Example 3.43] returned an IC50 of 15 nM.
In turn, `[N-]=[N+]=NCCc1ccc(CN2CCC(NC(N)=NC(=O)c3nc(Cl)c(N)nc3N)CC2)cc1` [Example 1.3] registered an IC50 of 4 nM. This IC50 lies about 3.8-fold lower than the previous one.
`CN(Cc1cn(CCc2ccc(CN3CCC(NC(N)=NC(=O)c4nc(Cl)c(N)nc4N)CC3)cc2)nn1)C(=O)CCNCCOCCOCCOCCOC(c1ccccc1)(c1ccccc1)c1ccccc1` [Example 3.6] had an IC50 of 1 nM.
On to `COC(=O)c1ccc(=O)n(Cc2ccc(CN3CCC(NC(N)=NC(=O)c4nc(Cl)c(N)nc4N)CC3)cc2)c1` [Example 1.5], for which the IC50 came to 7 nM.
